{"source": "paper PMC9609767", "about": "“Radiosynthesis and Preclinical Evaluation of an ^18F-Labeled Triazolopyridopyrazine-Based Inhibitor for Neuroimaging of the Phosphodiesterase 2A (PDE2A)” (Pharmaceuticals, 2022)", "key": {"[1]": {"experiment": "Dynamic PET/MR study in CD-1 mouse", "type": "in vivo", "settings": "for Uptake (SUVmean): uncorrected for metabolites", "protocol": "(§1) For the time of the experiments, one female CD-1 mouse (10 weeks; 30.5 g) and one female SPRD rat (9 weeks; 256 g) were kept in a dedicated climatic chamber with free access to water and food under a 12:12 h dark:light cycle at a constant temperature (24 °C). The animals were anesthetized (Anaesthesia Unit U-410, agntho’s, Lidingö, Sweden) with isoflurane (2.0%, 300 mL/min) delivered in a 60% oxygen/40% air mixture (Gas Blender 100 Series, MCQ instruments, Rome, Italy) and their body temperature maintained at 37 °C with a thermal bed system for the duration of the PET studies. A dynamic PET scan (PET/MR 1T, Mediso nanoScan®, Hungary) started 20 s before intravenous injection into the tail vein of [^18F]11 and was performed in mouse for 60 min (4.9 MBq in 150 μL isotonic saline; 20.5 nmol/kg; Am: 8.9 GBq/μmol, EOS) in rat for 30 min (29.7 MBq in 400 μL isotonic saline; 12 nmol/kg; Am: 11 GBq/μmol, EOS). Each PET image was corrected for random coincidences, dead time, scatter and attenuation (AC), based on a whole body (WB) MR scan. The reconstruction parameters for the list mode data were 3D-ordered subset expectation maximization (OSEM), 4 iterations, 6 subsets, energy window: 400–600 keV, coincidence mode: 1–5, ring difference: 81. Preceding the PET scan a T1 weighted WB gradient echo sequence (TR/TE: 20/6.4 ms, NEX: 1, FA: 25, FOV: 64 × 64 mm, Matrix: 128 × 128, STh: 0.5 mm) was performed for AC and anatomical orientation. PET Images were analyzed with PMOD (PMOD Technologies LLC, v. 4.1, Zurich, Switzerland). The respective brain regions were identified using the mouse brain atlas template Ma-Benveniste-Mirrione-T2 or the rat brain atlas template Schwarz-T2. The regional activity data (radioactivity concentration, kBq/mL) were normalized to the injected dose (MBq) and corrected for the animal weight (g) to provide standardized uptake values (SUV, g/mL). Finally, the results of the PETscans are expressed as mean SUV of the respective region of interest ROI."}, "[2]": {"experiment": "Chemical stability of the radiotracer in PBS and n-octanol", "type": "physicochemical", "settings": "30 °C, 60 min, radio-HPLC", "protocol": "In order to estimate the lipophilicity of [^18F]11, the partition coefficient was determined by the shake flask method using n-octanol and phosphate-buffered saline as partition system. […] The chemical stability of the radiotracer was investigated by incubation in phosphate-buffered saline (PBS) and n-octanol at 30 °C.\nThe determination of stability and logD value has been performed according to the procedures described by Sadeghzadeh and Wenzel et al.."}, "[3]": {"experiment": "In vivo metabolism in SPRD rats (radio-HPLC of plasma and brain)", "settings": "rat, 30 min p.i., i.v.", "protocol": "Metabolism in rats has been investigated in the animals applied in PET studies (protocol reported below). In brief, blood was taken from two anesthetized female SPRD rats 30 min after intravenous injection of [^18F]11 followed by decapitation and isolation of the brains. The blood samples and the brains were processed as described above.\nProtein precipitation was performed by the addition of ice-cold ACN/H2O (9:1, v/v) in a ratio of 4:1 (v/v) of organic solvent to plasma or brain homogenate, respectively. The samples were vortexed for 3 min, equilibrated on ice for 3 min, and centrifuged for 10 min at 10,000 rpm and the supernatant collected. The precipitates were washed with 100 μL of the solvent mixture and subjected to the same procedure. The combined supernatants were concentrated at 70 °C under argon flow to a final volume of approximately 100 μL and analysed by analytical radio-HPLC with a gradient system (see radiochemistry general section). The peak corresponding to the radiotracer in the radio-chromatogram was identified by co-injecting the sample with the reference compound 11. To determine the percentage of activity in the supernatants compared to total activity, aliquots of each step as well as the precipitates were quantified by an automated gamma counter (1480 WIZARD, Perkin Elmer, Turku, Finland). […]"}, "[4]": {"experiment": "Dynamic PET/MR study in SPRD rat", "type": "in vivo", "protocol": "as §1"}}, "data": [{"smiles": "CCCC(O)c1ccc([18F])c(-c2nnc3c(C)nc4ccc(C5CC5)nc4n23)c1", "note": "(stereo not drawn) [[^18F]11]", "values": [{"measurement": "maximum SUV in small intestine", "setting": "[1]; 60 min p.i.", "result": "~ 35 SUV"}, {"measurement": "SUV in bladder, spleen, muscle, gallbladder, kidney, and liver", "setting": "[1]; all time points investigated", "result": "< 5", "unit": "SUV"}, {"measurement": "Uptake (SUVmean)", "setting": "[1]; bladder, 5 min", "result": 0.10, "unit": "SUV"}, {"measurement": "Uptake (SUVmean)", "setting": "[1]; bladder, 15 min", "result": 0.08, "unit": "SUV"}, {"measurement": "Uptake (SUVmean)", "setting": "[1]; bladder, 30 min", "result": 0.10, "unit": "SUV"}, {"measurement": "Uptake (SUVmean)", "setting": "[1]; bladder, 45 min", "result": 0.07, "unit": "SUV"}, {"measurement": "Uptake (SUVmean)", "setting": "[1]; bladder, 60 min", "result": 0.06, "unit": "SUV"}, {"measurement": "Uptake (SUVmean)", "setting": "[1]; blood, 5 min", "result": 0.93, "unit": "SUV"}, {"measurement": "Uptake (SUVmean)", "setting": "[1]; blood, 15 min", "result": 0.56, "unit": "SUV"}, {"measurement": "Uptake (SUVmean)", "setting": "[1]; blood, 30 min", "result": 0.46, "unit": "SUV"}, {"measurement": "Uptake (SUVmean)", "setting": "[1]; blood, 45 min", "result": 0.34, "unit": "SUV"}, {"measurement": "Uptake (SUVmean)", "setting": "[1]; blood, 60 min", "result": 0.32, "unit": "SUV"}, {"measurement": "Uptake (SUVmean)", "setting": "[1]; bones, 5 min", "result": 0.71, "unit": "SUV"}, {"measurement": "Uptake (SUVmean)", "setting": "[1]; bones, 15 min", "result": 0.47, "unit": "SUV"}, {"measurement": "Uptake (SUVmean)", "setting": "[1]; bones, 30 min", "result": 0.31, "unit": "SUV"}, {"measurement": "Uptake (SUVmean)", "setting": "[1]; bones, 45 min", "result": 0.23, "unit": "SUV"}, {"measurement": "Uptake (SUVmean)", "setting": "[1]; bones, 60 min", "result": 0.20, "unit": "SUV"}, {"measurement": "Uptake (SUVmean)", "setting": "[1]; caecum, 5 min", "result": 0.10, "unit": "SUV"}, {"measurement": "Uptake (SUVmean)", "setting": "[1]; caecum, 15 min", "result": 0.12, "unit": "SUV"}, {"measurement": "Uptake (SUVmean)", "setting": "[1]; caecum, 30 min", "result": 0.11, "unit": "SUV"}, {"measurement": "Uptake (SUVmean)", "setting": "[1]; caecum, 45 min", "result": 0.11, "unit": "SUV"}, {"measurement": "Uptake (SUVmean)", "setting": "[1]; caecum, 60 min", "result": 0.16, "unit": "SUV"}, {"measurement": "TAC peak value (SUV)", "setting": "[1]; cerebellum, at 0.8 min", "result": 0.61, "unit": "SUV"}, {"measurement": "TAC peak value (SUV)", "setting": "[1]; cortex, at 2.8 min", "result": 0.47, "unit": "SUV"}, {"measurement": "Uptake (SUVmean)", "setting": "[1]; gallbladder, 5 min", "result": 1.41, "unit": "SUV"}, {"measurement": "Uptake (SUVmean)", "setting": "[1]; gallbladder, 15 min", "result": 1.78, "unit": "SUV"}, {"measurement": "Uptake (SUVmean)", "setting": "[1]; gallbladder, 30 min", "result": 1.46, "unit": "SUV"}, {"measurement": "Uptake (SUVmean)", "setting": "[1]; gallbladder, 45 min", "result": 1.32, "unit": "SUV"}, {"measurement": "Uptake (SUVmean)", "setting": "[1]; gallbladder, 60 min", "result": 1.34, "unit": "SUV"}, {"measurement": "Uptake (SUVmean)", "setting": "[1]; heart, 5 min", "result": 1.11, "unit": "SUV"}, {"measurement": "Uptake (SUVmean)", "setting": "[1]; heart, 15 min", "result": 0.65, "unit": "SUV"}, {"measurement": "Uptake (SUVmean)", "setting": "[1]; heart, 30 min", "result": 0.52, "unit": "SUV"}, {"measurement": "Uptake (SUVmean)", "setting": "[1]; heart, 45 min", "result": 0.37, "unit": "SUV"}, {"measurement": "Uptake (SUVmean)", "setting": "[1]; heart, 60 min", "result": 0.35, "unit": "SUV"}, {"measurement": "TAC peak value (SUV)", "setting": "[1]; hippocampus, at 2.8 min", "result": 0.70, "unit": "SUV"}, {"measurement": "Uptake (SUVmean)", "setting": "[1]; kidney left, 5 min", "result": 2.79, "unit": "SUV"}, {"measurement": "Uptake (SUVmean)", "setting": "[1]; kidney left, 15 min", "result": 2.37, "unit": "SUV"}, {"measurement": "Uptake (SUVmean)", "setting": "[1]; kidney left, 30 min", "result": 1.61, "unit": "SUV"}, {"measurement": "Uptake (SUVmean)", "setting": "[1]; kidney left, 45 min", "result": 1.18, "unit": "SUV"}, {"measurement": "Uptake (SUVmean)", "setting": "[1]; kidney left, 60 min", "result": 1.17, "unit": "SUV"}, {"measurement": "Uptake (SUVmean)", "setting": "[1]; liver, 5 min", "result": 3.40, "unit": "SUV"}, {"measurement": "Uptake (SUVmean)", "setting": "[1]; liver, 15 min", "result": 4.16, "unit": "SUV"}, {"measurement": "Uptake (SUVmean)", "setting": "[1]; liver, 30 min", "result": 3.62, "unit": "SUV"}, {"measurement": "Uptake (SUVmean)", "setting": "[1]; liver, 45 min", "result": 3.17, "unit": "SUV"}, {"measurement": "Uptake (SUVmean)", "setting": "[1]; liver, 60 min", "result": 3.00, "unit": "SUV"}, {"measurement": "Uptake (SUVmean)", "setting": "[1]; lung, 5 min", "result": 0.65, "unit": "SUV"}, {"measurement": "Uptake (SUVmean)", "setting": "[1]; lung, 15 min", "result": 0.43, "unit": "SUV"}, {"measurement": "Uptake (SUVmean)", "setting": "[1]; lung, 30 min", "result": 0.33, "unit": "SUV"}, {"measurement": "Uptake (SUVmean)", "setting": "[1]; lung, 45 min", "result": 0.25, "unit": "SUV"}, {"measurement": "Uptake (SUVmean)", "setting": "[1]; lung, 60 min", "result": 0.25, "unit": "SUV"}, {"measurement": "Uptake (SUVmean)", "setting": "[1]; muscle, 5 min", "result": 0.63, "unit": "SUV"}, {"measurement": "Uptake (SUVmean)", "setting": "[1]; muscle, 15 min", "result": 0.49, "unit": "SUV"}, {"measurement": "Uptake (SUVmean)", "setting": "[1]; muscle, 30 min", "result": 0.35, "unit": "SUV"}, {"measurement": "Uptake (SUVmean)", "setting": "[1]; muscle, 45 min", "result": 0.26, "unit": "SUV"}, {"measurement": "Uptake (SUVmean)", "setting": "[1]; muscle, 60 min", "result": 0.21, "unit": "SUV"}, {"measurement": "Uptake (SUVmean)", "setting": "[1]; small intestine, 5 min", "result": 2.10, "unit": "SUV"}, {"measurement": "Uptake (SUVmean)", "setting": "[1]; small intestine, 15 min", "result": 9.48, "unit": "SUV"}, {"measurement": "Uptake (SUVmean)", "setting": "[1]; small intestine, 30 min", "result": 20.64, "unit": "SUV"}, {"measurement": "Uptake (SUVmean)", "setting": "[1]; small intestine, 45 min", "result": 29.65, "unit": "SUV"}, {"measurement": "Uptake (SUVmean)", "setting": "[1]; small intestine, 60 min", "result": 35.11, "unit": "SUV"}, {"measurement": "Uptake (SUVmean)", "setting": "[1]; spleen, 5 min", "result": 0.48, "unit": "SUV"}, {"measurement": "Uptake (SUVmean)", "setting": "[1]; spleen, 15 min", "result": 0.59, "unit": "SUV"}, {"measurement": "Uptake (SUVmean)", "setting": "[1]; spleen, 30 min", "result": 0.45, "unit": "SUV"}, {"measurement": "Uptake (SUVmean)", "setting": "[1]; spleen, 45 min", "result": 0.30, "unit": "SUV"}, {"measurement": "Uptake (SUVmean)", "setting": "[1]; spleen, 60 min", "result": 0.24, "unit": "SUV"}, {"measurement": "Uptake (SUVmean)", "setting": "[1]; stomach, 5 min", "result": 0.15, "unit": "SUV"}, {"measurement": "Uptake (SUVmean)", "setting": "[1]; stomach, 15 min", "result": 0.18, "unit": "SUV"}, {"measurement": "Uptake (SUVmean)", "setting": "[1]; stomach, 30 min", "result": 0.19, "unit": "SUV"}, {"measurement": "Uptake (SUVmean)", "setting": "[1]; stomach, 45 min", "result": 0.17, "unit": "SUV"}, {"measurement": "Uptake (SUVmean)", "setting": "[1]; stomach, 60 min", "result": 0.13, "unit": "SUV"}, {"measurement": "TAC peak value (SUV)", "setting": "[1]; striatum, at 2.8 min", "result": 0.71, "unit": "SUV"}, {"measurement": "peak value of brain time-activity curve (SUV)", "setting": "[1]; whole brain, at 2.8 min p.i.", "result": 0.55, "unit": "SUV"}, {"measurement": "chemical stability", "setting": "[2]", "result": "stable"}, {"measurement": "fraction of non-metabolized radiotracer in brain", "setting": "[3]", "result": 66, "unit": "%"}, {"measurement": "fraction of non-metabolized radiotracer in plasma", "setting": "[3]", "result": "about 50%"}, {"measurement": "SUV caudate putamen", "setting": "[4]; 15 min p.i.", "result": 0.51, "unit": "SUV"}, {"measurement": "SUV cerebellum", "setting": "[4]; 15 min p.i.", "result": 0.40, "unit": "SUV"}, {"measurement": "peak value of brain uptake (SUV)", "setting": "[4]; whole brain, at 0.6 min", "result": 0.97, "unit": "SUV"}]}]}
